Source: patent publication US20260317324A1, “BIFUNCTIONAL COMPOUNDS FOR DEGRADING BRAF VIA UBIQUITIN PROTEOSOME PATHWAY” (Nurix Therapeutics, Inc., priority 2023, published 2026)

Columns and labels:
Format in all cases: cell-based
[1] = target: T1, BRAF D594G (Homo sapiens, UniProt P15056, D594G); experiment: BRAF HiBiT degradation assay, C-terminal HiBiT-tagged BRAF D594G overexpressed in HCT-116 BRAF−/− cells (clone 63), Nano-Glo HiBiT Lytic assay
T1 construct: Horizon Discovery (HCT-116 BRAF−/− cells); host or cells: HCT-116 BRAF−/− cells, clone 63, lentiviral transduction
Outline: (§1)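 Luminescence from the lytic HiBiT reagent, read after 10 min at room temperature, measured tagged BRAF remaining in lentivirally transduced HCT-116 BRAF−/− cells. Compounds were tested from 1 μM to 0.01 nM in half-log steps at 0.2% DMSO. DC50 values were fitted at 50% remaining.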

[2] = target: T2, BRAF V600E (Homo sapiens, UniProt P15056, V600E); experiment: BRAF HiBiT degradation assay, C-terminal HiBiT-tagged BRAF V600E A375 cells (clone 1F10), Nano-Glo HiBiT Lytic assay; conditions: for Dmax: A-375
T2 construct: endogenous C-terminal HiBiT fusion tag on BRAF V600E allele; endogenous in cells; host or cells: A375 clone 1F10 (CRISPR-Cas9 knock-in of the HiBiT tag; parental A375 from ATCC)
Outline: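 Endogenous BRAF V600E-HiBiT A375 (1F10), 10,000 cells/well, 24 h preculture; cpd 11-pt, 1 μM–0.01 nM half-log, n=2, 0.2% DMSO; HiBiT lytic detection 10 min RT; DC50 = fitted conc at Y=50; Obs. Dmax vs DMSO.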

[3] = target: T3, BRAF G469A (Homo sapiens, UniProt P15056, G469A); experiment: BRAF HiBiT degradation assay, C-terminal HiBiT-tagged BRAF G469A overexpressed in HCT-116 BRAF−/− cells (clone 34), Nano-Glo HiBiT Lytic assay
T3 construct: Horizon Discovery (HCT-116 BRAF−/− cells); host or cells: HCT-116 BRAF−/− cells, clone 34, lentiviral transduction
Outline: as §1

[4] = target: T4, BRAF G466V (Homo sapiens, UniProt P15056, G466V); experiment: BRAF HiBiT degradation assay, C-terminal HiBiT-tagged BRAF G466V overexpressed in HCT-116 BRAF−/− cells (clone 8), Nano-Glo HiBiT Lytic assay
T4 construct: Horizon Discovery (HCT-116 BRAF−/− cells); host or cells: HCT-116 BRAF−/− cells, clone 8, lentiviral transduction
Outline: as §1

[5] = BRAF D594G (Class 3), HCT-116 BRAF−/− cells, DC50 at 50% degradation
[6] = BRAF D594G (Class 3), HCT-116 BRAF−/− cells, observed Dmax relative to DMSO control
[7] = A375 (BRAF V600E, Class 1), DC50 at 50% degradation
[8] = A375 (BRAF V600E, Class 1), observed Dmax, % protein degraded relative to DMSO control
[9] = BRAF G469A (Class 2), HCT-116 BRAF−/− cells, DC50 at 50% degradation
[10] = BRAF G469A (Class 2), HCT-116 BRAF−/− cells, observed Dmax relative to DMSO control
[11] = BRAF G466V (Class 3), HCT-116 BRAF−/− cells, DC50 at 50% degradation
[12] = BRAF G466V (Class 3), HCT-116 BRAF−/− cells, observed Dmax relative to DMSO control
[13] = BRAF D594G, DC50 at 50%: fitted conc. at Y=50
[14] = HCT-116, BRAF D594G, percentage protein degraded at maximal compound effect relative to DMSO
[15] = A375 (BRAF V600E), DC50 at 50%: fitted conc. at Y=50
[16] = A375 (BRAF V600E), percentage protein degraded at maximal compound effect relative to DMSO
[17] = Class 2, BRAF G469A, DC50 at 50%: fitted conc. at Y=50
[18] = HCT-116, Class 2, BRAF G469A, percentage protein degraded at maximal compound effect relative to DMSO
[19] = BRAF G466V, DC50 at 50%: fitted conc. at Y=50
[20] = HCT-116, BRAF G466V, percentage protein degraded at maximal compound effect relative to DMSO

T3 sequence (P15056 whole entry G469A): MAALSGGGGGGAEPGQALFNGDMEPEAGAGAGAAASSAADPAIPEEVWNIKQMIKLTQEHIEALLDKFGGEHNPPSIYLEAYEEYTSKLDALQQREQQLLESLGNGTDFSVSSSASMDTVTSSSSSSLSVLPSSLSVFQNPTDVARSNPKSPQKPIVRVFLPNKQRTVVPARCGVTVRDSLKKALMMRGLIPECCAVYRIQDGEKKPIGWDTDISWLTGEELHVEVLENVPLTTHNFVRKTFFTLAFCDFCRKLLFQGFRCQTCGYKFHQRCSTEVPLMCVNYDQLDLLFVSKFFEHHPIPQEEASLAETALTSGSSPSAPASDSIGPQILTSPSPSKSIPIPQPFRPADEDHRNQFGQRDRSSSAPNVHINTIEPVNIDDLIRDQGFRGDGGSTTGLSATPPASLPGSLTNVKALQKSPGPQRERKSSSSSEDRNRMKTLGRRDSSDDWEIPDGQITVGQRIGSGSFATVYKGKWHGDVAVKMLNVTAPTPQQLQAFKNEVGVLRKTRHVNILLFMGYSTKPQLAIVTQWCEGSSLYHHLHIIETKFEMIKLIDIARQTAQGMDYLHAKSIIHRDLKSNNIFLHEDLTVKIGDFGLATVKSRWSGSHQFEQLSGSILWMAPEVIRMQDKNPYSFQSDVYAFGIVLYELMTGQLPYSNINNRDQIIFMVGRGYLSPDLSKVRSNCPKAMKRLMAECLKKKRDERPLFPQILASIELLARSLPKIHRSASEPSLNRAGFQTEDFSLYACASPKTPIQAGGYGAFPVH
T1 sequence (P15056 whole entry D594G): as the sequence (P15056 whole entry G469A) above, with A469G, D594G counted along it
T4 sequence (P15056 whole entry G466V): as the sequence (P15056 whole entry G469A) above, with G466V, A469G counted along it
T2 sequence (P15056 whole entry V600E, the tested form may be a part): as the sequence (P15056 whole entry G469A) above, with A469G, V600E counted along it

Compound	DC50 [1, 5] [nM]	Dmax [1, 6] [%]	DC50 [2, 7] [nM]	Dmax [2, 8] [%]	DC50 [3, 9] [nM]	Dmax [3, 10] [%]	DC50 [4, 11] [nM]	Dmax [4, 12] [%]	DC50 [1, 13] [nM]	Dmax [1, 14] [%]	DC50 [2, 15] [nM]	Dmax [2, 16] [%]	DC50 [3, 17] [nM]	Dmax [3, 18] [%]	DC50 [4, 19] [nM]	Dmax [4, 20] [%]
CCCS(=O)(=O)Nc1cc(Cl)cc(-c2cn(-c3ccc(N4CCN(CC5CCN(c6ccc(N7CCC(=O)NC7=O)cc6)CC5)[C@@H](C)C4)cc3)nc2-c2ccncc2)c1F [Compound 280, N-[5-chloro-3-(1-{4-[(3S)-4-({1-[4-(2,4-dioxo-1,3-diazinan-1-yl)phenyl]piperidin-4-yl}methyl)-3-methylpiperazin-1-yl]phenyl}-3-(pyridin-4-yl)-1H-pyrazol-4-yl)-2-fluorophenyl]propane-1-sulfonamide]	> 500	< 30	10 to 50	> 70	> 500	< 30	> 500	30 to 70	–	–	–	–	–	–	–	–
CCCS(=O)(=O)Nc1cccc(-c2nc(C3CCN(C(=O)C4CCN(CC5CCN(c6cccc7c6n(C)c(=O)n7C6CCC(=O)NC6=O)CC5)CC4)CC3)sc2-c2ccnc(N)n2)c1F (racemic) [Compound 195, Rac-N-{3-[5-(2-aminopyrimidin-4-yl)-2-(1-{1-[(1-{1-[(3R)-2,6-dioxopiperidin-3-yl]-3-methyl-2-oxo-2,3-dihydro-1H-1,3-benzodiazol-4-yl}piperidin-4-yl)methyl]piperidine-4-carbonyl}piperidin-4-yl)-1,3-thiazol-4-yl]-2-fluorophenyl}propane-1-sulfonamide]	–	–	–	–	–	–	–	–	< 10	30 to 70	< 10	> 70	< 10	30 to 70	< 10	30 to 70
CCCS(=O)(=O)Nc1cccc(-c2cn(-c3ccc(N4CCN(CC5CCN(c6ccc(C7CCC(=O)NC7=O)cc6)CC5)CC4)cc3)nc2-c2ccncc2)c1F (racemic) [Compound 21, Rac-N-{3-[1-(4-{4-[(1-{4-[(3R)-2,6-dioxopiperidin-3-yl]phenyl}piperidin-4-yl)methyl]piperazin-1-yl}phenyl)-3-(pyridin-4-yl)-1H-pyrazol-4-yl]-2-fluorophenyl}propane-1-sulfonamide]	–	–	–	–	–	–	–	–	> 500	30 to 70	10 to 50	> 70	> 500	30 to 70	10 to 50	30 to 70

Further lines, results first:

DC50 [1, 5] [nM]	Dmax [1, 6] [%]	DC50 [2, 7] [nM]	Dmax [2, 8] [%]	DC50 [3, 9] [nM]	Dmax [3, 10] [%]	DC50 [4, 11] [nM]	Dmax [4, 12] [%]	DC50 [1, 13] [nM]	Dmax [1, 14] [%]	DC50 [2, 15] [nM]	Dmax [2, 16] [%]	DC50 [3, 17] [nM]	Dmax [3, 18] [%]	DC50 [4, 19] [nM]	Dmax [4, 20] [%]	Compound
> 500	< 30	< 10	> 70	> 500	< 30	> 500	30 to 70	–	–	–	–	–	–	–	–	O=C1CC[C@H](c2ccc(N3CCC(CN4CCCN(c5ccc(-n6cc(-c7cc(Cl)cc(NS(=O)(=O)N8CCCC8)c7F)c(-c7ccncc7)n6)c(F)c5)CC4)CC3)cc2)C(=O)N1 [Compound 346, N-{5-chloro-3-[1-(4-{4-[(1-{4-[(3R)-2,6-dioxopiperidin-3-yl]phenyl}piperidin-4-yl)methyl]-1,4-diazepan-1-yl}-2-fluorophenyl)-3-(pyridin-4-yl)-1H-pyrazol-4-yl]-2-fluorophenyl}pyrrolidine-1-sulfonamide]
< 10	> 70	10 to 50	> 70	10 to 50	> 70	< 10	> 70	–	–	–	–	–	–	–	–	O=C1CC[C@H](c2ccc(N3CCC(CN4CCN(c5ccc(-n6cc(-c7cc(Cl)cc(NS(=O)(=O)N8CCCC8)c7F)c(-c7ccncc7)n6)cc5F)CC4)CC3)cc2)C(=O)N1 [Compound 364, N-{5-chloro-3-[1-(4-{4-[(1-{4-[(3R)-2,6-dioxopiperidin-3-yl]phenyl}piperidin-4-yl)methyl]piperazin-1-yl}-3-fluorophenyl)-3-(pyridin-4-yl)-1H-pyrazol-4-yl]-2-fluorophenyl}pyrrolidine-1-sulfonamide]
